# Values quoted from earlier work in US7632828B2, “Gram-positive carbapenem antibacterials and processes for their preparation” (FOB Synthesis, Inc., priority 2004, dated 2009).
# Key:
# [1] = biological target: T1, mammalian β-lactamase renal dehydropeptidase-I (DHP-I) (Homo sapiens, UniProt P16444)
# T1 sequence (P16444 17-385): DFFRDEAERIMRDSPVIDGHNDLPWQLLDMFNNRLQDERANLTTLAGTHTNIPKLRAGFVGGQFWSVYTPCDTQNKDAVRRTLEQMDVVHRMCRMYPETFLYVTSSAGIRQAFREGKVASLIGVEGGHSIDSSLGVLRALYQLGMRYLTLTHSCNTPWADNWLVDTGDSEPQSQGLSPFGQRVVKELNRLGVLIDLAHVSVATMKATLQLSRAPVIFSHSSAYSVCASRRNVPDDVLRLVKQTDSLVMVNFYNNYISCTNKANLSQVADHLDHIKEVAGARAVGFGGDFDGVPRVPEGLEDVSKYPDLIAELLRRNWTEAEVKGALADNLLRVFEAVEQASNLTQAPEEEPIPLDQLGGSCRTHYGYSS
# [2] = test subjects
# [3] = due to its lactam nucleus and amino acid configuration
# kidney dehydropeptidase = biological target: T2, kidney dehydropeptidase (Homo sapiens, UniProt P16444)
# T2 sequence (P16444 17-385): T1 sequence (P16444 17-385)
molecule,measurement,setting,value
"C[C@@H](O)[C@H]1C(=O)N2C(C(=O)O)=C(SCCN=CN)C[C@H]12 [imipenem, N-formimidoyl thienamycin]",stability to renal dehydropeptidase-I (DHP-I),[1],instability
same,urinary tract recovery,[2],poor urinary tract recovery
C[C@@H](O)[C@H]1C(=O)N2C(C(=O)O)=C(SCCN)C[C@H]12 [thienamycin],chemical stability,[3],chemically unstable
same,activity against Pseudomonas spp.,Pseudomonas spp.,active against Pseudomonas spp.
Biapenem,stability against hydrolysis by kidney dehydropeptidase,kidney dehydropeptidase,stability against hydrolysis by kidney dehydropeptidase
same,potency across bacterial spectrum,wide bacterial spectrum,exhibits potency across a wide bacterial spectrum
meropenem,activity against Gram-negative bacteria,Gram-negative bacteria,active against a large number of Gram-negative bacteria
